This assay deals with T1, human oxytocin receptor (Homo sapiens, UniProt P30559).
T1 construct: host or cells: CHO cells (pcDNA3.1 vector)
T1 sequence (P30559 1-389): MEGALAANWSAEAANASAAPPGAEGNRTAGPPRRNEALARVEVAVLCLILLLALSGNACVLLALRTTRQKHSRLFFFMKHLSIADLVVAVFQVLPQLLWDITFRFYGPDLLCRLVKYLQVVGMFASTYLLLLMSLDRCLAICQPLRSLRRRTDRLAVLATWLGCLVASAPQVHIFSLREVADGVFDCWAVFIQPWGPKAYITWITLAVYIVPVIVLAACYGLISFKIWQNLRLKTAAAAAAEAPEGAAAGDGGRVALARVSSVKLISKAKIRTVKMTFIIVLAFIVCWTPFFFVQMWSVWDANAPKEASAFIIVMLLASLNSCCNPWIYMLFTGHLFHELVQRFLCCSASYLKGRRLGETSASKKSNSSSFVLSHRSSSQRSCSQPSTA
Description: Oxytocin binding in Chinese Hamster Ovary cell membranes expressing human oxytocin receptors. The settings on record: CHO cell membranes, [3H]oxytocin; for inhibition at 0.1 µM: 100 nM, values without parentheses, read-out: OT % inhibition @ 100% nM; for IC50: values in parentheses, read-out: OT (IC50).

For 23 compounds, inhibition and IC50 results are on record in patent US7109193B2, “Tricyclic diazepines tocolytic oxytocin receptor antagonists” (Wyeth, priority 2001, dated 2006).

A word on the inhibition: it is the change of the read-out against control, counted positive when it falls. As usually defined, the IC50 is the point on the concentration scale where inhibition reaches its midpoint.

In the case of `COc1cc(C(=O)N2Cc3ccc(C(=O)N(C)CCN(C)C)n3Cc3ccccc32)ccc1-c1ccccc1C` [Example 92, N-[2-(Dimethylamino)ethyl]-10-[(2-methoxy-2′-methyl[1,1′-biphenyl]-4-yl)carbonyl]-N-methyl-10,11-dihydro-5H-pyrrolo[2,1-c][1,4]benzodiazepine-3-carboxamide], the inhibition at 0.1 µM turned out to be 99%. In the case of `COc1cc(C(=O)N2Cc3ccc(C(=O)N(C)CCN(C)C)n3Cc3ccccc32)ccc1-c1cccc2ccccc12` [Example 93, N-[2-(Dimethylamino)ethyl]-10-[3-methoxy-4-(1-naphthyl)benzoyl]-N-methyl-10,11-dihydro-5H-pyrrolo[2,1-c][1,4]benzodiazepine-3-carboxamide], the inhibition at 0.1 µM amounted to 90%.

For the compound `COc1ccccc1-c1ccc(C(=O)N2Cc3ccc(C(=O)N(C)CCN(C)C)n3Cc3ccccc32)cc1OC` [Example 94, 10-[(2,2′-Dimethoxy[1,1′-biphenyl]-4-yl)carbonyl]-N-[2-(dimethylamino)ethyl]-N-methyl-10,11-dihydro-5H-pyrrolo[2,1-c][1,4]benzodiazepine-3-carboxamide], the inhibition at 0.1 µM stood at 94%. With `COc1cccc(-c2ccc(C(=O)N3Cc4ccc(C(=O)N(C)CCN(C)C)n4Cc4ccccc43)cc2OC)c1` [Example 95, 10-[(2,3′-Dimethoxy[1,1′-biphenyl]-4-yl)carbonyl]-N-[2-(dimethylamino)ethyl]-N-methyl-10,11-dihydro-5H-pyrrolo[2,1-c][1,4]benzodiazepine-3-carboxamide], the inhibition at 0.1 µM came to 97%. The same measure, in the same setting: in the case of `CN(C)CCN(C)C(=O)c1ccc2n1Cc1ccccc1N(C(=O)c1ccc(-c3cccc4ccccc34)cc1Cl)C2` [Example 96, 10-[2-Chloro-4-(1-naphthyl)benzoyl]-N-[2-(dimethylamino)ethyl]-N-methyl-10,11-dihydro-5H-pyrrolo[2,1-c][1,4]benzodiazepine-3-carboxamide] it was 54%. Take `Cc1cc(C(=O)N2Cc3ccc(C(=O)N(C)CCCN(C)C)n3Cc3ccccc32)ccc1-c1ccccc1C(F)(F)F` [Example 97, N-[3-(Dimethylamino)propyl]-N-methyl-10-{[2-methyl-2′-(trifluoromethyl)[1,1′-biphenyl]-4-yl]carbonyl}-10,11-dihydro-5H-pyrrolo[2,1-c][1,4]benzodiazepine-3-carboxamide]: the 50% inhibitory concentration (IC50) came to 7.14 nM.

Turning to `COc1cc(-c2ccccc2C)c(Cl)cc1C(=O)N1Cc2ccc(C(=O)N(C)CCCN(C)C)n2Cc2ccccc21` [Example 98, 10-[(6-Chloro-3-methoxy-2′-methyl[1,1′-biphenyl]-4-yl)carbonyl]-N-[3-(dimethylamino)propyl]-N-methyl-10,11-dihydro-5H-pyrrolo[2,1-c][1,4]benzodiazepine-3-carboxamide], the half-maximal inhibitory concentration (IC50) is 2.48 nM.

Take `COc1cccc(-c2cc(OC)c(C(=O)N3Cc4ccc(C(=O)N(C)CCCN(C)C)n4Cc4ccccc43)cc2Cl)c1` [Example 99, 10-[(6-Chloro-3,3′-dimethoxy[1,1′-biphenyl]-4-yl)carbonyl]-N-[3-(dimethylamino)propyl]-N-methyl-10,11-dihydro-5H-pyrrolo[2,1-c][1,4]benzodiazepine-3-carboxamide]: the IC50 worked out at 2.04 nM.

Consider `COc1ccccc1-c1ccc(C(=O)N2Cc3ccc(C(=O)N(C)CCCN(C)C)n3Cc3ccccc32)cc1C` [Example 100, N-[3-(Dimethylamino)propyl]-10-[(2′-methoxy-2-methyl[1,1′-biphenyl]-4-yl)carbonyl]-N-methyl-10,11-dihydro-5H-pyrrolo[2,1-c][1,4]benzodiazepine-3-carboxamide], for which the inhibition at 0.1 µM came out at 98%. Same read-out and setting: in the case of `Cc1ccccc1-c1ccc(C(=O)N2Cc3ccc(C(=O)N(C)CCCN(C)C)n3Cc3ccccc32)cc1C` [Example 101, N-[3-(Dimethylamino)propyl]-10-[(2,2′-dimethyl[1,1′-biphenyl]-4-yl)carbonyl]-N-methyl-10,11-dihydro-5H-pyrrolo[2,1-c][1,4]benzodiazepine-3-carboxamide] it was 100%; in that of `COc1cccc(-c2ccc(C(=O)N3Cc4ccc(C(=O)N(C)CCCN(C)C)n4Cc4ccccc43)cc2C)c1` [Example 102, N-[3-(Dimethylamino)propyl]-10-[(3′-methoxy-2-methyl[1,1′-biphenyl]-4-yl)carbonyl]-N-methyl-10,11-dihydro-5H-pyrrolo[2,1-c][1,4]benzodiazepine-3-carboxamide], 95%; in that of `COc1ccccc1-c1ccc(C(=O)N2Cc3ccc(C(=O)N(C)CCCN(C)C)n3Cc3ccccc32)cc1` [Example 103, N-[3-(Dimethylamino)propyl]-10-[(2′-methoxy[1,1′-biphenyl]-4-yl)carbonyl]-N-methyl-10,11-dihydro-5H-pyrrolo[2,1-c][1,4]benzodiazepine-3-carboxamide], 98%.

`Cc1ccccc1-c1ccc(C(=O)N2Cc3ccc(C(=O)N(C)CCCN(C)C)n3Cc3ccccc32)cc1` [Example 104, N-[3-(Dimethylamino)propyl]-N-methyl-10-[(2′-methyl[1,1′-biphenyl]-4-yl)carbonyl]-10,11-dihydro-5H-pyrrolo[2,1-c][1,4]benzodiazepine-3-carboxamide]: the inhibition at 0.1 µM worked out at 96%. For `COc1cc(C(=O)N2Cc3ccc(C(=O)N(C)CCCN(C)C)n3Cc3ccccc32)ccc1-c1ccccc1C` [Example 105, N-[3-(Dimethylamino)propyl]-10-[(2-methoxy-2′-methyl[1,1′-biphenyl]-4-yl)carbonyl]-N-methyl-10,11-dihydro-5H-pyrrolo[2,1-c][1,4]benzodiazepine-3-carboxamide], the inhibition at 0.1 µM is 97%. For the compound `COc1cc(C(=O)N2Cc3ccc(C(=O)N(C)CCCN(C)C)n3Cc3ccccc32)ccc1-c1cccc2ccccc12` [Example 106, N-[3-(Dimethylamino)propyl]-10-[3-methoxy-4-(1-naphthyl)benzoyl]-N-methyl-10,11-dihydro-5H-pyrrolo[2,1-c][1,4]benzodiazepine-3-carboxamide], the inhibition at 0.1 µM was determined as 88%. In the case of `COc1cc(-c2ccccc2C)c(Cl)cc1C(=O)N1Cc2ccc(C(=O)N3CCC(N4CCCCC4)CC3)n2Cc2ccccc21` [Example 110, {10-[(6-Chloro-3-methoxy-2′-methyl[1,1′-biphenyl]-4-yl)carbonyl]-10,11-dihydro-5H-pyrrolo[2,1-c][1,4]benzodiazepin-3-yl}[4-(1-piperidinyl)-1-piperidinyl]methanone], the half-maximal inhibitory concentration (IC50) was found to be 7.93 nM.

Take `COc1ccccc1-c1ccc(C(=O)N2Cc3ccc(C(=O)N4CCC(N5CCCCC5)CC4)n3Cc3ccccc32)cc1` [Example 111, {10-[(2′-Methoxy[1,1′-biphenyl]-4-yl)carbonyl]-10,11-dihydro-5H-pyrrolo[2,1-c][1,4]benzodiazepin-3-yl}[4-(1-piperidinyl)-1-piperidinyl]methanone]: the half-inhibitory concentration (IC50) worked out at 6.7 nM.

On to `COc1cc(-c2ccccc2C)c(Cl)cc1C(=O)N1Cc2ccc(C(=O)N3CCC(N4CCCC4)CC3)n2Cc2ccccc21` [Example 136, {10-[(6-Chloro-3-methoxy-2′-methyl[1,1′-biphenyl]-4-yl)carbonyl]-10,11-dihydro-5H-pyrrolo[2,1-c][1,4]benzodiazepin-3-yl}[4-(1-pyrrolidinyl)-1-piperidinyl]methanone], for which the half-inhibitory concentration (IC50) amounted to 7.19 nM. Same read-out and setting: in the case of `COc1ccccc1-c1ccc(C(=O)N2Cc3ccc(C(=O)N4CCN(CCN(C)C)CC4)n3Cc3ccccc32)cc1C` [Example 195, {4-[2-(Dimethylamino)ethyl]-1-piperazinyl}{10-[(2′-methoxy-2-methyl[1,1′-biphenyl]-4-yl)carbonyl]-10,11-dihydro-5H-pyrrolo[2,1-c][1,4]benzodiazepin-3-yl}methanone] it was 3.84 nM; in that of `Cc1cc(C(=O)N2Cc3ccc(C(=O)N4CCN(CCN(C)C)CC4)n3Cc3ccccc32)ccc1-c1ccccc1C(F)(F)F` [Example 196, {4-[2-(Dimethylamino)ethyl]-1-piperazinyl}(10-{[2-methyl-2′-(trifluoromethyl)[1,1′-biphenyl]-4-yl]carbonyl}-10,11-dihydro-5H-pyrrolo[2,1-c][1,4]benzodiazepin-3-yl)methanone], 11.6 nM. For `COc1cc(-c2ccccc2C)c(Cl)cc1C(=O)N1Cc2ccc(C(=O)N3CCN(CCN(C)C)CC3)n2Cc2ccccc21` [Example 197, {10-[(6-Chloro-3-methoxy-2′-methyl[1,1′-biphenyl]-4-yl)carbonyl]-10,11-dihydro-5H-pyrrolo[2,1-c][1,4]benzodiazepin-3-yl}{4-[2-(dimethylamino)ethyl]-1-piperazinyl}methanone], the IC50 amounted to 5.39 nM. Still for that read-out and setting: in the case of `COc1ccccc1-c1ccc(C(=O)N2Cc3ccc(C(=O)N4CCN(CCN5CCOCC5)CC4)n3Cc3ccccc32)cc1C` [Example 206, {10-[(2′-Methoxy-2-methyl[1,1′-biphenyl]-4-yl)carbonyl]-10,11-dihydro-5H-pyrrolo[2,1-c][1,4]benzodiazepin-3-yl}{4-[2-(4-morpholinyl)ethyl]-1-piperazinyl}methanone] it was 3.66 nM; in that of `COc1ccccc1-c1ccc(C(=O)N2Cc3ccc(C(=O)N4CCN(CCN5CCOCC5)CC4)n3Cc3ccccc32)cc1` [Example 207, {10-[(2′-Methoxy[1,1′-biphenyl]-4-yl)carbonyl]-10,11-dihydro-5H-pyrrolo[2,1-c][1,4]benzodiazepin-3-yl}{4-[2-(4-morpholinyl)ethyl]-1-piperazinyl}methanone], 9.5 nM.
